According to ChEMBL document CHEMBL1909046, “DrugMatrix in vitro pharmacology data”:

Legend:
[1] = molecular target: T1, B2 bradykinin receptor (Homo sapiens, UniProt P30411); format: cell membranes, Membrane; settings: chem-1
T1 sequence (P30411 whole entry): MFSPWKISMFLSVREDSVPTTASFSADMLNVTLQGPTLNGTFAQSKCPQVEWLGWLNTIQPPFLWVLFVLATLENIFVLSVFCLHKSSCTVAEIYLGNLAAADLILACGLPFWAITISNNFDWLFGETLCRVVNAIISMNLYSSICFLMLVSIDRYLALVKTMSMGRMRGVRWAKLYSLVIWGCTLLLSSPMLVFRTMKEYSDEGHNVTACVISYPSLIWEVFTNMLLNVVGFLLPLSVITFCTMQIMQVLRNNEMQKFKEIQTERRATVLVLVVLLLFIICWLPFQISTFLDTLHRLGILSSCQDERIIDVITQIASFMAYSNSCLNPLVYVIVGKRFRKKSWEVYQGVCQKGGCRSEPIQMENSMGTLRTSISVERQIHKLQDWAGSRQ

[2] = molecular target: 5-hydroxytryptamine receptor 6 (Homo sapiens, UniProt P50406); format: cell membranes, HeLa, Membrane; settings: for Ki: read-out: Ki
[3] = molecular target: T2, Receptor-type tyrosine-protein phosphatase C (Homo sapiens, UniProt P08575); design: species or system Escherichia coli;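 also: inhibition of CD45 enzyme activity measured using DiFMUP as substrate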
T2 sequence (P08575 whole entry): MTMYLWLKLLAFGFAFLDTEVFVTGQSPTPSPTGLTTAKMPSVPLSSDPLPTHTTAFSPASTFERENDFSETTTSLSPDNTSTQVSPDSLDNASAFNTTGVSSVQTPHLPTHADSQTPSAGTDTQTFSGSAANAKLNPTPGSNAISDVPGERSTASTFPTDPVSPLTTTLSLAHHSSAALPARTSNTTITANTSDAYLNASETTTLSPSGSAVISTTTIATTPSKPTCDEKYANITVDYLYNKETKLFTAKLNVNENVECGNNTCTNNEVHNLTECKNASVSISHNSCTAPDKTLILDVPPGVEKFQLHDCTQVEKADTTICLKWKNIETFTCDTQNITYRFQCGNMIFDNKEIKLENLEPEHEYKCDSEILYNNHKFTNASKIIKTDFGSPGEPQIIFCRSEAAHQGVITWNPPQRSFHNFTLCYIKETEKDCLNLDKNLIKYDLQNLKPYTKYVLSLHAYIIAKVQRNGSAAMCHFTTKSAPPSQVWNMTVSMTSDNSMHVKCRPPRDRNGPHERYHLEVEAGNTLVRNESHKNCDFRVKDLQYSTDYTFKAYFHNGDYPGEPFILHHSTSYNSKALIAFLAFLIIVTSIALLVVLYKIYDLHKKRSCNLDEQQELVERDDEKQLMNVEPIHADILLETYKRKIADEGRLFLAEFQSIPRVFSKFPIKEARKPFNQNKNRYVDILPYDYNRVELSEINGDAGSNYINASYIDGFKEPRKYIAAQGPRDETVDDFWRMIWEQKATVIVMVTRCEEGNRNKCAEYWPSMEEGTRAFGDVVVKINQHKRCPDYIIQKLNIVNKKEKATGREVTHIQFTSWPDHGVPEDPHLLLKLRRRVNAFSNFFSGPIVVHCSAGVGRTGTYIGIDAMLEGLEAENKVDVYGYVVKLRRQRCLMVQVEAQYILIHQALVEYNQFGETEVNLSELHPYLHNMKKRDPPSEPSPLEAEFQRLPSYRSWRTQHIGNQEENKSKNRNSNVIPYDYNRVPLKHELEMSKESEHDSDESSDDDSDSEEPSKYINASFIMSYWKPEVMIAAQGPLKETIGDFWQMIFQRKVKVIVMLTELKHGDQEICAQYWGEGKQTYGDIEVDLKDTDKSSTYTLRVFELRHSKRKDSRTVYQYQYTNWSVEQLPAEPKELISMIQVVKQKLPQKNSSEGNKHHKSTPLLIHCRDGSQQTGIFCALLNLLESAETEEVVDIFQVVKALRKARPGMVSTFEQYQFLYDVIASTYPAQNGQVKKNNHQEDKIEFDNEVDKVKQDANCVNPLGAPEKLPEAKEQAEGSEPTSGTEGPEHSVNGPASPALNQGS

[4] = molecular target: Cytochrome P450 2C9 (Homo sapiens, UniProt P11712); settings: bti-tn-5b1-4
[5] = molecular target: T3, Estrogen receptor (Homo sapiens, UniProt P03372); settings: sf9
T3 sequence (P03372 whole entry): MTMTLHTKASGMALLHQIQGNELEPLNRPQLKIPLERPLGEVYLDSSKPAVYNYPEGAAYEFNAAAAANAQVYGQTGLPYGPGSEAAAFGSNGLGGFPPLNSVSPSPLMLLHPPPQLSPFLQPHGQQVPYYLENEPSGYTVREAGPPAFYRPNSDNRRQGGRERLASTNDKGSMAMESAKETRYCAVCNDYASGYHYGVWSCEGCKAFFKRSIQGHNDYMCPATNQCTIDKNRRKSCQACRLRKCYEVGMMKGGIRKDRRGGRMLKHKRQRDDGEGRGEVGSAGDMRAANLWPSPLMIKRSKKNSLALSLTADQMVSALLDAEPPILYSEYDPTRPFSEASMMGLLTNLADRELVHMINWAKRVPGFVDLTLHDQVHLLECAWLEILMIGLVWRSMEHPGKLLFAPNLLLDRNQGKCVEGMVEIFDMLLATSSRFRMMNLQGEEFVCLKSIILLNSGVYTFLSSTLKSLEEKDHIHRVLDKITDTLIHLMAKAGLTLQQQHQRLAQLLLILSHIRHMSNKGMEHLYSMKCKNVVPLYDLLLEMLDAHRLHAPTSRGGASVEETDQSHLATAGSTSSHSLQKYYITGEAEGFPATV

[6] = molecular target: Estrogen receptor beta (Homo sapiens, UniProt Q92731); settings: sf9
Also: in other assays of this panel Not Active means under 50% inhibition at 10 µM.

Cytochrome P450 2C9, sequence (P11712 whole entry): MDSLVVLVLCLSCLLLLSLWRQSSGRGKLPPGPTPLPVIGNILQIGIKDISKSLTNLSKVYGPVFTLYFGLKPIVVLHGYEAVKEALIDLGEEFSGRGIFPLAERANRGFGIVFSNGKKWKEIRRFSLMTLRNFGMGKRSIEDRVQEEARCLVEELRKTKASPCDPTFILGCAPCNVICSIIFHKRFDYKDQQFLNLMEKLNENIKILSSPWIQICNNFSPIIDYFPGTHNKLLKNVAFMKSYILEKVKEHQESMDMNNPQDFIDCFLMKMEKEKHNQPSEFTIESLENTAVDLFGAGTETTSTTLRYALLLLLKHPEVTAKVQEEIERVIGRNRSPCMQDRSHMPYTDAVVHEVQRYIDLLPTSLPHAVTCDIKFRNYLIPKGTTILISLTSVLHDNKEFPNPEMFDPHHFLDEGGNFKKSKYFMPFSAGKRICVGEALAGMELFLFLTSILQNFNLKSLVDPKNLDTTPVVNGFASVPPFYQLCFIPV
Estrogen receptor beta, sequence (Q92731 whole entry): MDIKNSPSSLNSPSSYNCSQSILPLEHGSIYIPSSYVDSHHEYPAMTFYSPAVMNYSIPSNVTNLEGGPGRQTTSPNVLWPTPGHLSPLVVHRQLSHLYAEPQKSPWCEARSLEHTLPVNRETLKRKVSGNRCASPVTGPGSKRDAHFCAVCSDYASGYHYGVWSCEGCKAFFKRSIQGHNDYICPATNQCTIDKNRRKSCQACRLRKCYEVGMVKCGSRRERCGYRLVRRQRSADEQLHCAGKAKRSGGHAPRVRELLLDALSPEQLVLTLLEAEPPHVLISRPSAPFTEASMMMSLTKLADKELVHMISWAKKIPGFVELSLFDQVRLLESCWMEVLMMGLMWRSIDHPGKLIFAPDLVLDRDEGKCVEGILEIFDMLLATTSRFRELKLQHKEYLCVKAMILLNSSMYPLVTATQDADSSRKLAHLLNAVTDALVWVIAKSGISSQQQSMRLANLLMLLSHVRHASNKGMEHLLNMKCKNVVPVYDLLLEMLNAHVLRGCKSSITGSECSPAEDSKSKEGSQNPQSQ
5-hydroxytryptamine receptor 6, sequence (P50406 whole entry): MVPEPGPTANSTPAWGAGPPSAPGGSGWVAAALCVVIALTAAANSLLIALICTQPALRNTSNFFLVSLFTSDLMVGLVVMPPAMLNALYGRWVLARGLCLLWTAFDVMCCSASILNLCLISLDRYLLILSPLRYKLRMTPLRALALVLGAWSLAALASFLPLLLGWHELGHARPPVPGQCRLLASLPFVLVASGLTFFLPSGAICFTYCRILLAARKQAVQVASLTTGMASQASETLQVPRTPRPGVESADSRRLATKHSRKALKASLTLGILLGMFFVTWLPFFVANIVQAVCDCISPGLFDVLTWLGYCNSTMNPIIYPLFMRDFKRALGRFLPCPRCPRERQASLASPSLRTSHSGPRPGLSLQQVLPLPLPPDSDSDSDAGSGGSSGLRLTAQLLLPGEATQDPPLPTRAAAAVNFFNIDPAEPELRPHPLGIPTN

| Structure (SMILES) | IC50 [1] | IC50 ([2]; hela) | IC50 [3] | IC50 [4] | Ki [4] | IC50 [5] | IC50 [6] | IC50 ([2]; read-out: IC50) | Ki [2] |
| --- | --- | --- | --- | --- | --- | --- | --- | --- | --- |
| CC(=O)[C@H]1CC[C@H]2[C@@H]3CCC4=CC(=O)CC[C@]4(C)[C@H]3CC[C@]12C [PROGESTERONE] | Not Active | Not Active | Not Active | Not Active | Not Active | Not Active | Not Active | – | – |
| CC1(C)[C@H]2CC[C@]1(C)C(=O)C2 [(-)-CAMPHOR] | Not Active | Not Active | Not Active | Not Active | Not Active | Not Active | Not Active | – | – |
| C=CC[C@@H]1/C=C(\C)C[C@H](C)C[C@H](OC)[C@H]2O[C@@](O)(C(=O)C(=O)N3CCCC[C@H]3C(=O)O[C@H](/C(C)=C/[C@@H]3CC[C@@H](O)[C@H](OC)C3)[C@H](C)[C@@H](O)CC1=O)[C@H](C)C[C@@H]2OC [TACROLIMUS ANHYDROUS] | Not Active | Not Active | Not Active | Not Active | Not Active | Not Active | Not Active | – | – |
| Nc1ccc(S(=O)(=O)Nc2ccnn2-c2ccccc2)cc1 [SULFAPHENAZOLE] | Not Active | Not Active | Not Active | – | – | Not Active | Not Active | – | – |
| CN[C@H](CC(C)C)C(=O)N[C@H]1C(=O)N[C@@H](CC(N)=O)C(=O)N[C@H]2C(=O)N[C@H]3C(=O)N[C@H](C(=O)N[C@H](C(=O)O)c4cc(O)cc(O)c4-c4cc3ccc4O)[C@H](O)c3ccc(c(Cl)c3)Oc3cc2cc(c3O[C@@H]2O[C@H](CO)[C@@H](O)[C@H](O)[C@H]2O[C@H]2C[C@](C)(N)[C@H](O)[C@H](C)O2)Oc2ccc(cc2Cl)[C@H]1O [VANCOMYCIN] | Not Active | Not Active | Not Active | – | – | Not Active | Not Active | – | – |
| CC(=O)S[C@@H]1CC2=CC(=O)CC[C@]2(C)[C@H]2CC[C@@]3(C)[C@@H](CC[C@@]34CCC(=O)O4)[C@H]12 [SPIRONOLACTONE] | Not Active | Not Active | Not Active | – | – | Not Active | Not Active | – | – |
| COC(=O)C1=C(C)NC(C)=C(C(=O)OC)C1c1ccccc1[N+](=O)[O-] [NIFEDIPINE] | Not Active | Not Active | Not Active | – | – | Not Active | Not Active | – | – |
| Clc1ccccc1C(c1ccccc1)(c1ccccc1)n1ccnc1 [CLOTRIMAZOLE] | Not Active | – | Not Active | – | – | Not Active | Not Active | 12.5 µM | 5.82 µM |
| CC1=C(/C=C/C(C)=C/C=C/C(C)=C\C(=O)O)C(C)(C)CCC1 [ISOTRETINOIN] | Not Active | Not Active | Not Active | Not Active | Not Active | Not Active | – | – | – |
| CSc1ccc2c(c1)N(CCC1CCCCN1C)c1ccccc1S2 (stereo not given) [THIORIDAZINE] | Not Active | – | Not Active | Not Active | Not Active | Not Active | – | 0.071 µM | 0.033 µM |
| COC(=O)[C@@H]1[C@H]2C[C@H]3c4[nH]c5ccccc5c4CCN3C[C@@H]2CC[C@@H]1O [YOHIMBINE] | Not Active | – | Not Active | – | – | Not Active | Not Active | – | – |
| CN1CCN2c3ccccc3Cc3ccccc3C2C1 (stereo not given) [MIANSERIN] | Not Active | – | Not Active | Not Active | Not Active | Not Active | Not Active | – | – |
